Results: PubChem BioAssay AID2060491 (Molecular Pharmacology Branch, DTP, NCI, 2025)

System: 857933-349-R-J2-PDC complex spheroids, viability
Assay: Anticancer human tumor 857933-349-R-J2-PDC patient-derived colon adenocarcinoma cell line growth inhibition [GQUAD]
Conditions: for IC50: curve of first compound; for viability, T/C: stronger effect = lower value
Procedure, shortened: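 Viability of tumor cells grown as complex spheroids with endothelial and stromal cells, exposed to drug combinations. Top concentration at or near clinical Cmax (else 10 microM), diluted in half-log increments.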

[1] = second compound 0.0316 µM, first compound 0.0316 µM
[2] = second compound 0.0316 µM, first compound 0.1 µM
[3] = second compound 0.0316 µM, first compound 0.316 µM
[4] = second compound 0.0316 µM, first compound 1 µM
[5] = second compound 0.0316 µM, first compound 3.16 µM
[6] = second compound 0.0316 µM, first compound 10 µM
[7] = second compound 0.1 µM, first compound 0.0316 µM
[8] = second compound 0.1 µM, first compound 0.1 µM
[9] = second compound 0.1 µM, first compound 0.316 µM
[10] = second compound 0.1 µM, first compound 1 µM
[11] = second compound 0.1 µM, first compound 3.16 µM
[12] = second compound 0.1 µM, first compound 10 µM
[13] = second compound 0.316 µM, first compound 0.0316 µM
[14] = second compound 0.316 µM, first compound 0.1 µM
[15] = second compound 0.316 µM, first compound 0.316 µM
[16] = second compound 0.316 µM, first compound 1 µM
[17] = second compound 0.316 µM, first compound 3.16 µM
[18] = second compound 0.316 µM, first compound 10 µM
[19] = second compound 1 µM, first compound 0.0316 µM
[20] = second compound 1 µM, first compound 0.1 µM
[21] = second compound 1 µM, first compound 0.316 µM
[22] = second compound 1 µM, first compound 1 µM
[23] = second compound 1 µM, first compound 3.16 µM
[24] = second compound 1 µM, first compound 10 µM
[25] = second compound 3.16 µM, first compound 0.0316 µM
[26] = second compound 3.16 µM, first compound 0.1 µM
[27] = second compound 3.16 µM, first compound 0.316 µM
[28] = second compound 3.16 µM, first compound 1 µM
[29] = second compound 3.16 µM, first compound 3.16 µM
[30] = second compound 3.16 µM, first compound 10 µM
[31] = second compound 10 µM, first compound 0.0316 µM
[32] = second compound 10 µM, first compound 0.1 µM
[33] = second compound 10 µM, first compound 0.316 µM
[34] = second compound 10 µM, first compound 1 µM
[35] = second compound 10 µM, first compound 3.16 µM
[36] = second compound 10 µM, first compound 10 µM
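Also: spheroids exposed to compounds for one week before readout.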
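For viability, T/C in this document: percent viability relative to vehicle DMSO wells taken as 100%.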

COc1ncnc(C2CC2)c1-c1ncc2cnn(Cc3ccc(-c4nc(C(F)(F)F)cn4C(C)C)cc3)c2n1 + Cc1[nH]c2ccc(F)cc2c1-c1nc2c3cccnc3c3ncccc3c2[nH]1
IC50 (second compound 0.0316 µM): > 10 µM | IC50 (second compound 0.1 µM): > 10 µM | IC50 (second compound 0.316 µM): > 10 µM | IC50 (second compound 1 µM): > 10 µM | IC50 (second compound 3.16 µM): > 10 µM | IC50 (second compound 10 µM): > 10 µM | viability, T/C [1]: 102% | viability, T/C [2]: 104% | viability, T/C [3]: 99% | viability, T/C [4]: 104% | viability, T/C [5]: 109% | viability, T/C [6]: 103% | viability, T/C [7]: 106% | viability, T/C [8]: 106% | viability, T/C [9]: 107% | viability, T/C [10]: 106% | viability, T/C [11]: 98% | viability, T/C [12]: 102% | viability, T/C [13]: 102% | viability, T/C [14]: 100% | viability, T/C [15]: 96.1% | viability, T/C [16]: 100% | viability, T/C [17]: 94.3% | viability, T/C [18]: 95.6% | viability, T/C [19]: 102% | viability, T/C [20]: 91.4% | viability, T/C [21]: 96.3% | viability, T/C [22]: 87.9% | viability, T/C [23]: 98.4% | viability, T/C [24]: 90.7% | viability, T/C [25]: 98% | viability, T/C [26]: 83.1% | viability, T/C [27]: 84.5% | viability, T/C [28]: 83.2% | viability, T/C [29]: 92.5% | viability, T/C [30]: 83.4% | viability, T/C [31]: 86.3% | viability, T/C [32]: 87.7% | viability, T/C [33]: 84.6% | viability, T/C [34]: 91.3% | viability, T/C [35]: 90.3% | viability, T/C [36]: 88.2%

CC1COCCN1c1cc(-c2ccnn2C)c2ccnc(-c3ccn[nH]3)c2n1 (centres undefined) + Cc1cnc(CNC(=O)c2c(=O)c3ccc(N4CCCN(C)CC4)nc3n3c2sc2ccccc23)cn1
IC50 (second compound 0.0316 µM): < 0.0316 µM | IC50 (second compound 0.1 µM): < 0.0316 µM | IC50 (second compound 0.316 µM): < 0.0316 µM | IC50 (second compound 1 µM): < 0.0316 µM | IC50 (second compound 3.16 µM): < 0.0316 µM | IC50 (second compound 10 µM): < 0.0316 µM | viability, T/C [1]: 49.6% | viability, T/C [2]: 33.7% | viability, T/C [3]: 33.5% | viability, T/C [4]: 31.8% | viability, T/C [5]: 38.3% | viability, T/C [6]: 41.4% | viability, T/C [7]: 30.5% | viability, T/C [8]: 25.8% | viability, T/C [9]: 18.4% | viability, T/C [10]: 23.6% | viability, T/C [11]: 31% | viability, T/C [12]: 32.4% | viability, T/C [13]: 12.3% | viability, T/C [14]: 6.9% | viability, T/C [15]: 5.16% | viability, T/C [16]: 5.25% | viability, T/C [17]: 9.22% | viability, T/C [18]: 16% | viability, T/C [19]: 2.71% | viability, T/C [20]: 2.88% | viability, T/C [21]: 2.86% | viability, T/C [22]: 2.6% | viability, T/C [23]: 4.59% | viability, T/C [24]: 8.81% | viability, T/C [25]: 2.08% | viability, T/C [26]: 3.98% | viability, T/C [27]: 2.01% | viability, T/C [28]: 1.59% | viability, T/C [29]: 2.42% | viability, T/C [30]: 5% | viability, T/C [31]: 1.03% | viability, T/C [32]: 0.7% | viability, T/C [33]: 0.73% | viability, T/C [34]: 0.54% | viability, T/C [35]: 1.7% | viability, T/C [36]: 2.18%
